Data from patent publication US6689777B2 (Kenneth S. Warren Institute, priority 2001, dated 2004).
Structures can show the parent of a compound that is named as a salt. Where two headings read alike, the source gives them in different places.

Experiments:
P. falciparum = P. falciparum growth in culture ([3H]-hypoxanthine incorporation); assay type: cell-based; settings: read-out: IC50 vs. P. falc.
Description: To determine the effectiveness of the compounds of the present invention against the erythrocytic stage of the malarial parasite, P. falciparum was grown in human erythrocyte suspensions and maintained at 37° C. in candle jars according to the method of Trager and Jensen (15,16). Parasites were stage-synchronized by incubating mainly ring-stage infected erythrocytes in 5% sorbitol for 10 minutes at room temperature (17). Cultures undergo one growth cycle (2 days) before use. Strains used include the chloroquine sensitive strains D10 and HB3, and the chloroquine resistant isolates Dd2 and FCR.
Parasite growth was determined by measuring incorporation of [^3H]-hypoxanthine into the nucleic acids of the parasite (18). Effects of the compounds of the present invention on parasite growth was determined by measuring the reduction in incorporation of radiolabel as compared to controls. Briefly, assays are performed in 96-well microtiter plates. After 24 h of candle jar incubation at 37° C., [^3H]-hypoxanthine is added to each well. After 18 h the plates are harvested onto glass fiber filter 96 well plates using a cell harvester, dried, and the amount of radioactivity is determined. Drug IC50 values (molar concentration which decreases [^3H]-hypoxanthine incorporation by 50% as compared to drug-free controls) are calculated by extrapolation of the log dose-response curves using curve fitting software (Origin, Microcal Software, Northampton, Mass.).
Parasites were grown in A^+ human erythrocyte suspensions using RPMI-1640 (GIBCO, Gaithersburg, Md.) medium supplemented by 25 mM HEPES (pH 7.35), 0.2% NaHCO3 (23 mM), 0.2% (D)-Glucose and 10% human A^+ plasma and maintained at 37° C. in candle jars according to the method of Trager and Jensen (20,21) Parasites are stage synchronized by incubating mainly ring-stage infected erythrocytes in 5% sorbitol for 10 minutes at room temperature (22). Cultures undergo one growth cycle (2 days) before use. Strains used include the chloroquine sensitive strains D10 and HB3, and the chloroquine resistant isolates Dd2 and FCR.
Parasite growth was determined by measuring incorporation of [^3H]-hypoxanthine into the nucleic acids of the parasite as previously described (23). Effects of the compounds of the present invention on parasite growth was determined by measuring the reduction in incorporation of radiolabel as compared to controls. Briefly, assays were performed in 96-well microtiter plates, each well containing 200 μl of synchronized ring-stage infected erythrocytes in complete media and 50 μl of drug dilution or solvent. The final hematocrit was 1.5% and percent parasitemias range from 2-8%. After 24 h of candle jar incubation at 37° C., 2.5 μCi of [^3H]-hypoxanthine (17 Ci/mmol, Amersham, Arlington Heights, Ill.) in RPMI-1640 media supplemented with 25 mM HEPES (pH 7.35), 0.2% NaHCO3 (23 mM), 0.2% (D)-Glucose is added to each well. After 18 h the plates were harvested onto glass fiber filter 96 well plates using a cell harvester, dried, and 25 μl scintillation acid added per well. The, amount of radioactivity was determined. Drug IC50 values (molar concentration which decreases [^3H]-hypoxanthine incorporation by 50% as compared to drug-free controls) are calculated by extrapolation of the log dose-response curves using curve fitting software (Origin, Microcal Software, Northampton, Mass.). The effects on parasite grown by aromatic guanyllhydrazones, bisguanylhydrazones, naphthothiazolium salts, and other compounds of the instant invention, together with data on hemozoin depolymerization from Example 5, are shown in tables 1 through 4, respectively.

synthetic hemozoin = experiment: Depolymerization of synthetic hemozoin in vitro; assay type: biochemical; settings: 50 mM test compound, acetate buffer pH 5.0, 37° C., 16 hours
Description: This activity is evaluated by incubating a suspension of monomer-free hemozoin at 37° C. with compounds of the present invention for 16 hours. After incubation, hemozoin is separated from any solubilized heme and soluble heme oligomers, the oligomers depolymerized, and the heme present in the supernatants determined.
The synthesis of synthetic hemozoin is carried out as previously described (26). In brief, 60 μmoles of hematin was dissolved in 8 ml of 0.1N NaOH. Following dissolution 49 mmoles of glacial acetic acid was added and the suspension heated at 70° C. overnight. The precipitate was then washed extensively with LPS-free water. In order to remove unreacted heme the precipitate was extracted with 0.1M sodium bicarbonate (pH 9.1) for three hours. The remaining insoluble material was recovered by centrifugation, resuspended in EtOH and transferred to sterile Eppendorf tubes. The material was washed several times in EtOH and finally resuspended in LPS-free double-distilled H2O. The hemozoin preparation was then tested for endotoxin by using the Limulus Amebocyte Lysate test following manufacturer's instructions. Although the preparation of LPS-free hemozoin from native or synthetic sources is not critical for in vitro depolymerization studies, it is critical for studies involving monocytes and animals (see Examples below). Small amounts of LPS can evoke a considerable cytokine response and interfere with interpretation of results. The amount of heme in the final product was determined from a small aliquot using the pyridine-hemochrome method as previously described (26). The preparations are stored at 4° C. until used.
A suspension of monomer-free hemozoin (equivalent to 2 mM free heme) as prepared above was incubated at 37° C. with […] test compound in total volume of 500 μl in acetate buffer (pH: 5.0) in siliconized Eppendorf tubes (Brinkmann Instruments, Westbury, N.Y.) for 16 hours. A control sample containing distilled H2O instead of hemozoin was included. The samples were centrifuged at 14,000 rpm (Eppendorf centrifuge model 5415C, Brinkmann Instruments, Westbury, N.Y.) for 20 min; then 225 μl supernatant was diluted in 175 μl acetate buffer (pH 5.0). Another 225 μl was added to 175 μl 0.5 M NaOH to dissolve possible oligomeric depolymerization products to monomers. Half of the pellet was washed twice for 2.5 hr in 200 μl 2.5% SDS (v/v) in dH2O, the other half was washed twice in 200 μl HCO3^− buffer (pH: 9.1). Both sample supernatants and SDS and HCO3^− buffer supernatants were centrifuged 14,000 rpm for 20 min. and supernatants were added to 10 μl sodium dithionite (200 mg/ml dH2O) to reduce the heme monomers in solution to Fe^2+. All samples were measured in triplicate at 540 nm (Model UV1601 spectrophotometer, Shimradzu Corp, Columbia, Md.). The OD obtained from the blind sample was subtracted from the OD of the hemozoin containing sample.

[1] = test system: hemozoin ingested by human monocytes; experiment: Breakdown of macrophage-ingested hemozoin; assay type: cell-based; settings: 25 μM compound, FIG. 1
Description: A further evaluation of compounds was performed for activity against pathophysiological effects of hemozoin on the host, using hemozoin-laden macrophages in culture. Freshly-isolated human monocytes were suspended in medium and hemozoin at a concentration reflective of the amount of hemozoin released into circulation during schizogony. In order to maximize contact between hemozoin and monocytes, the cell preparations were centrifuged for 5 sec at 150×g. Ingestion of hemozoin is essentially complete by two hours. Cells were then washed, plated and kept in a humidified incubator. The test compounds of the present invention were added to the wells at concentrations ranging from 0 to 20 mM. Macrophage viability was determined by direct microscopic examination (gross morphology and detachment from the well), trypan blue exclusion method, and LDH release. […] At various times post-treatment (1 hour; 3 hours), cells were lysed, extensively washed and spun down (2500×g) to pellet any cellular components including hemozoin. The lysates were then treated with alkali to dissolve hemozoin to give monomeric heme (35). Monomeric heme was quantified as described above.
Human monocytes were freshly isolated from a buffy coat from a normal donor using Percoll gradients. […] Cells were solubilized at various time points and hemozoin content determined by luminol-elicited chemiluminescence.

[2] = Table 2, aromatic bisguanylhydrazones, growth in culture, [3H]-hypoxanthine incorporation

Compound	IC50 (P. falciparum; [2])	% depol. hemoz. (synthetic hemozoin; Table 2)	other results
Cc1cc(C=NNC(=N)N)c(O)c(C=NNC(=N)N)c1 [2,2′-[(2-hydroxy-5-methyl-1,3-phenylene)dimethylidyne]bis(hydrazinecarboximidamide)]	0.2 µM	2.3%	hemozoin content of monocytes after phagocytosis of hemozoin (luminol-elicited chemiluminescence) [1]: significant reduction of hemozoin
CC(=NNC(=N)N)c1cncc(C(C)=NNC(=N)N)c1.Cl.Cl [2,2′-(3,5-pyridinediyldiethylidyne)bis(hydrazinecarboximidamide) dihydrochloride]	0.4 µM	0.3%	–
C/C(=N\NC(=N)N)c1cccc(NC(=O)CCCC(=O)Nc2cccc(/C(C)=N/NC(=N)N)c2)c1 [dihydrochloride]	–	–	IC50 (P. falciparum; Plasmodium falciparum): 0.8 µM; % depol. hemoz. (synthetic hemozoin; Table 4): 0%
Cl.Cl.N=C(N)NN=Cc1cccc(C=NNC(=N)N)c1 [2,2′-(1,3-phenylenedimethylidyne)bis(hydrazinecarboximidamide) dihydrochloride]	1 µM	0.1%	–
Cl.Cl.N=C(N)NN=Cc1ccc(O)c(C=NNC(=N)N)c1 [2,2′-[(4-hydroxy-1,3-phenylene)dimethylidyne]bis(hydrazinecarboximidamide) dihydrochloride]	5.5 µM	2.2%	–
CC(=NNC(=N)N)c1ccc(O)c(C(C)=NNC(=N)N)c1.Cl.Cl [2,2′-[(4-hydroxy-1,3-phenylene)diethylidyne]bis(hydrazinecarboximidamide) dihydrochloride]	2.6 µM	0.6%	–
COc1c(C=NNC(=N)N)cc(C)cc1C=NNC(=N)N.Cl.Cl [2,2′-[(2-methoxy-5-methyl-1,3-phenylene)dimethylidyne]bis(hydrazinecarboximidamide) dihydrochloride]	2.3 µM	2.0%	–
Cc1c(O)c2ccccc2c2c1sc(NCCCN(CCO)CCO)[n+]2C [2-[[3-[bis(2-hydroxyethyl)amino]propyl]imino]-1,2-dihydro-1,4-dimethylnaphtho[1,2-d]thiazol-5-ol dihydrochloride]	–	–	IC50 (P. falciparum; Plasmodium falciparum): 0.2 µM; % depol. hemoz. (synthetic hemozoin; Table 3): 2.9%
Cl.N=C(N)NN=Cc1c(N)oc2ccc(Cl)cc2c1=O [2-amino-3-[(aminoiminomethyl)hydrazono]methyl]-6-chloro-4H-1-benzopyran-4-one hydrochloride]	–	–	IC50 (P. falciparum; Table 1, aryl monoguanylhydrazones, growth in culture, [3H]-hypoxanthine incorporation): 3.25 µM; % depol. hemoz. (synthetic hemozoin; Table 1): 0.6%
CC(=NNC(=N)N)c1cc(O)cc(C(C)=NNC(=N)N)c1.Cl.Cl [2,2′-[(5-hydroxy-1,3-phenylene)diethylidyne]bis(hydrazinecarboximidamide) dihydrochloride]	1.4 µM	0.0%	–
Cl.N=C(N)NN=Cc1c(O)ccc2ccccc12 [2-[(2-hydroxy-1-naphthyl)methylidene]hydrazinecarboximidamide monohydrochloride]	–	–	IC50 (P. falciparum; Plasmodium falciparum): 1.8 µM; % depol. hemoz. (synthetic hemozoin; Table 1): 4.3%
CC(=NNC(=N)N)c1cccc(C(C)=NNC(=N)N)n1.Cl.Cl [2,2′-(2,6-pyridinediyldiethylidyne)bis(hydrazinecarboximidamide) dihydrochloride]	2 µM	0.0%	–
CC(=NNC(=N)N)c1cc(N)cc(C(C)=NNC(=N)N)c1.Cl.Cl [2,2′-[(5-amino-1,3-phenylene)diethylidyne]bis(hydrazinecarboximidamide) dihydrochloride]	4 µM	0.3%	–
CC(CCC1=C(CCC(C)=NNC(=N)N)C(=O)c2ccccc2C1=O)=NNC(=N)N.Cl.Cl [2,2′-[(1,4-dihydro-1,4-dioxo-2,3-naphthalenediyl)bis(1-methyl-3-propanyl-1-ylidene)]bis(hydrazinecarboximidamide)dihydrochloride]	–	–	IC50 (P. falciparum; Table 4, in culture, [3H]-hypoxanthine incorporation): 0.8 µM; % depol. hemoz. (synthetic hemozoin; Table 4): 0.3%
CC(=NNC(=N)N)c1cccc(C(C)=NNC(=N)N)c1.Cl.Cl [2,2′-(1,3-phenylenediethylidyne)bis(hydrazinecarboximidamide) dihydrochloride]	0.83 µM	0.4%	–
CC(=NNC(=N)N)c1cc(C(C)=NNC(=N)N)c(O)cc1O.Cl.Cl [2,2′-[(4,6-dihydroxy-1,3-phenylene)diethylidyne]bis(hydrazinecarboximidamide) dihydrochloride]	7 µM	2.6%	–
CC(=NNC(=N)N)c1cccc(C(C)=NNC(=N)N)c1N [2,2′-[(2-amino-1,3-phenylene)diethylidyne]bis(hydrazinecarboximidamide) dihydrochloride]	6.3 µM	–	–
